According to patent US8927500B2, “Peptidomimetic macrocycles” (Aileron Therapeutics, Inc., priority 2012, dated 2015):
Where two headings read alike, the source gives them in different places. Where a SMILES comes first, the peptide text is derived from it. Bridges are numbered along the chain shown (N, C = ends). [ ]: non-standard residue; d: D form. R8 = C=CCCCCCC[C@@](C)(N)C(=O)O; hLeu = CC(C)CC[C@H](N)C(=O)O; S5 = C=CCCC[C@](C)(N)C(=O)O; Nle = CCCC[C@H](N)C(=O)O; Ac3c = NC1(C(=O)O)CC1

Experiments:
MDMX = target: T1, MDMX (Homo sapiens, UniProt O15151); test: Competitive fluorescence polarization assay for MDMX; format: binding; conditions: competitive FP assay; for IC50: read-out: IC50 (MDMX)
T1 sequence (O15151 1-125): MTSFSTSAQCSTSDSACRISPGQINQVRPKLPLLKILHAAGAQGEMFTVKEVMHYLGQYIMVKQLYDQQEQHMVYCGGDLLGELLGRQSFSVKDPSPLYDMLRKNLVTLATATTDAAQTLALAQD

MDM2 = MDM2 (Homo sapiens, UniProt Q00987); test: Competitive fluorescence polarization assay for MDM2; format: binding; conditions: competitive FP assay, MDM2; for IC50: read-out: IC50 (MDM2)
Chain of MDM2 (Q00987 1-125): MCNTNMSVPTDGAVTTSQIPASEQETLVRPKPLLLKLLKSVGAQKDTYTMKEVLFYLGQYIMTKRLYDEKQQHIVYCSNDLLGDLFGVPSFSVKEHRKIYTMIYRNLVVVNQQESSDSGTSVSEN

| SMILES | IC50 (MDMX) [nM] | Ki (MDMX; read-out: Ki (MDMX)) [nM] | IC50 (MDM2) [nM] | Ki (MDM2; read-out: Ki (MDM2)) [nM] | Ki (MDMX; Ki (MDMX)) [nM] | Ki (MDM2; Ki (MDM2)) [nM] |
| --- | --- | --- | --- | --- | --- | --- |
| CC[C@H](C)[C@H](NC(=O)[C@H](C)NC(=O)[C@H](C)NC(=O)[C@]1(C)CCCC=CCCCCCC[C@@](C)(NC(=O)[C@H](Cc2ccccc2)NC(=O)[C@@H](NC(=O)[C@H](CC(C)C)NC(=O)CN(C)C)[C@@H](C)O)C(=O)N[C@@H](CCC(=O)O)C(=O)N[C@@H](Cc2ccc(C(=O)O)cc2)C(=O)N[C@@H](Cc2c[nH]c3ccccc23)C(=O)N[C@@H](C)C(=O)N[C@@H](CCC(N)=O)C(=O)N[C@@H](CC2CCC2)C(=O)N1)C(=O)N[C@H](C)C(N)=O (single isomer, unassigned) [compound 441] | < 10 | < 10 | < 10 | < 10 |  |  |
| CCCC[C@H](NC(=O)[C@H](C)NC(=O)[C@H](C)NC(=O)[C@]1(C)CCCC=CCCCCCC[C@@](C)(NC(=O)[C@H](Cc2ccccc2)NC(=O)[C@@H](NC(=O)[C@H](CC(C)C)NC(=O)CN(C)C)[C@@H](C)O)C(=O)N[C@@H](C)C(=O)N[C@@H](Cc2ccc(O)cc2)C(=O)N[C@@H](Cc2c[nH]c3ccccc23)C(=O)N[C@@H](C)C(=O)N[C@@H](CCC(N)=O)C(=O)N[C@@H](CC(C)C)C(=O)N1)C(=O)N[C@@H](C)C(N)=O (single isomer, unassigned) [compound 443] | 10 to 100 | 10 to 100 | 10 to 100 | < 10 |  |  |
| CC(=O)N[C@@H](CC(C)C)C(=O)N[C@H](C(=O)N[C@@H](Cc1ccccc1)C(=O)N[C@]1(C)CCCCCCC=CCCC[C@@](C)(C(=O)N[C@@H](C)C(=O)N[C@@H](C)C(=O)N[C@@H](C)C(=O)N[C@@H](C)C(=O)N[C@@H](C)C(=O)N[C@H](C)C(=O)O)NC(=O)[C@H](CC(C)C)NC(=O)[C@H](CCC(N)=O)NC(=O)[C@H](C)NC(=O)[C@H](Cc2c[nH]c3ccccc23)NC(=O)[C@H](Cc2ccc(O)cc2)NC(=O)[C@H](CCC(=O)O)NC1=O)[C@@H](C)O (single isomer, unassigned) [compound 551] |  |  |  |  | 10 to 100 | < 10 |
| CC(=O)N[C@@H](CC(C)C)C(=O)N[C@H](C(=O)N[C@@H](Cc1ccccc1)C(=O)N[C@]1(C)CCCCCCC=CCCC[C@@](C)(C(=O)N[C@@H](C)C(=O)N[C@@H](C)C(=O)N[C@@H](C)C(=O)N[C@@H](C)C(=O)N[C@@H](C)C(=O)N[C@H](C)C(N)=O)NC(=O)[C@H](CC(C)C)NC(=O)[C@H](C)NC(=O)[C@H](C)NC(=O)[C@H](Cc2c[nH]c3ccccc23)NC(=O)[C@H](Cc2ccc(O)cc2)NC(=O)[C@H](C)NC1=O)[C@@H](C)O (single isomer, unassigned) [compound 708] |  | 10 to 100 |  | 10 to 100 |  |  |
| CC(=O)N[C@@H](CC(C)C)C(=O)N[C@H](C(=O)N[C@@H](Cc1ccccc1)C(=O)N[C@]1(C)CCCCCCC=CCCC[C@@](C)(C(=O)N[C@@H](CO)C(N)=O)NC(=O)[C@H](CC(C)C)NC(=O)[C@H](CCC(N)=O)NC(=O)[C@H](C)NC(=O)[C@H](Cc2c[nH]c3ccccc23)NC(=O)[C@H](C)NC(=O)[C@H](Cc2c[nH]cn2)NC1=O)[C@@H](C)O (single isomer, unassigned) [compound 710] |  | 10 to 100 |  | 10 to 100 |  |  |
| CC(=O)N[C@@H](CC(C)C)C(=O)N[C@H](C(=O)N[C@@H](Cc1ccccc1)C(=O)N[C@]1(C)CCCCCCC=CCCC[C@@](C)(C(=O)N[C@@H](CO)C(=O)N[C@@H](C)C(N)=O)NC(=O)[C@H](CC2CCC2)NC(=O)[C@H](CCC(N)=O)NC(=O)[C@H](C)NC(=O)[C@H](Cc2c[nH]c3ccccc23)NC(=O)[C@H](Cc2ccc(O)cc2)NC(=O)[C@H](CCC(=O)O)NC1=O)[C@@H](C)O (single isomer, unassigned) [compound 711] |  | 100 to 1000 |  | 10 to 100 |  |  |
| CC(=O)N[C@@H](CC(C)C)C(=O)N[C@H](C(=O)N[C@@H](Cc1ccccc1)C(=O)N[C@]1(C)CCCCCCC=CCCC[C@@](C)(C(=O)N[C@@H](CO)C(=O)N[C@@H](C)C(=O)N[C@@H](C)C(N)=O)NC(=O)[C@H](CC2CCC2)NC(=O)[C@H](CCC(N)=O)NC(=O)[C@H](C)NC(=O)[C@H](Cc2c[nH]c3ccccc23)NC(=O)[C@H](Cc2ccc(O)cc2)NC(=O)[C@H](Cc2c[nH]cn2)NC1=O)[C@@H](C)O (single isomer, unassigned) [compound 712] |  | < 10 |  | < 10 |  |  |
| CC(=O)N[C@@H](CC(C)C)C(=O)N[C@H](C(=O)N[C@@H](Cc1ccccc1)C(=O)N[C@]1(C)CCCCCCC=CCCC[C@@](C)(C(=O)N[C@@H](CO)C(=O)N[C@@H](C)C(=O)N[C@@H](C)C(N)=O)NC(=O)[C@H](CC2CCC2)NC(=O)[C@H](CCC(N)=O)NC(=O)[C@H](C)NC(=O)[C@H](Cc2c[nH]c3ccccc23)NC(=O)[C@H](Cc2ccc(O)cc2)NC(=O)[C@H](CO)NC1=O)[C@@H](C)O (single isomer, unassigned) [compound 713] |  | < 10 |  | < 10 |  |  |
| CC(=O)N[C@@H](CC(C)C)C(=O)N[C@H](C(=O)N[C@@H](Cc1ccccc1)C(=O)N[C@]1(C)CCCCCCC=CCCC[C@@](C)(C(=O)N[C@@H](C)C(=O)N[C@@H](C)C(=O)N[C@@H](C)C(N)=O)NC(=O)[C@H](CC2CCC2)NC(=O)[C@H](CCC(N)=O)NC(=O)[C@H](C)NC(=O)[C@H](Cc2c[nH]c3ccccc23)NC(=O)[C@H](Cc2ccc(O)cc2)NC(=O)[C@H](CCC(=O)O)NC1=O)[C@@H](C)O (single isomer, unassigned) [compound 716] |  | < 10 |  | < 10 |  |  |
| CSCC[C@H](NC(=O)[C@H](C)NC(=O)[C@H](CO)NC(=O)[C@]1(C)CCCC=CCCCCCC[C@@](C)(NC(=O)[C@H](Cc2ccccc2)NC(=O)[C@@H](NC(=O)[C@H](CC(C)C)NC(C)=O)[C@@H](C)O)C(=O)N[C@@H](C)C(=O)N[C@@H](Cc2ccc(O)cc2)C(=O)N[C@@H](Cc2c[nH]c3ccccc23)C(=O)N[C@@H](C)C(=O)N[C@@H](CCC(N)=O)C(=O)N[C@@H](CC(C)C)C(=O)N1)C(N)=O [compound 5] (Ac-LTF[R8]AYWAQL[S5]SAM-NH2; staple 4-11) | 100 to 1000 | 10 to 100 | 10 to 100 | < 10 |  |  |
| CCCC[C@H](NC(=O)[C@H](C)NC(=O)[C@H](C)NC(=O)[C@]1(C)CCCC=CCCCCCC[C@@](C)(NC(=O)[C@H](Cc2ccccc2)NC(C)=O)C(=O)N[C@@H](C)C(=O)N[C@@H](Cc2ccc(O)cc2)C(=O)N[C@@H](Cc2c[nH]c3ccccc23)C(=O)N[C@@H](CCC(=O)O)C(=O)NC2(CC2)C(=O)N[C@@H](CC(C)C)C(=O)N1)C(N)=O [compound 14] (Ac-F[R8]AYWE[Ac3c]L[S5]AA[Nle]-NH2; staple 2-9) | 10 to 100 | < 10 | 10 to 100 | < 10 |  |  |
| CSCC[C@H](NC(=O)[C@H](C)NC(=O)[C@H](C)NC(=O)[C@]1(C)CCCC=CCCCCCC[C@@](C)(NC(=O)[C@H](Cc2ccccc2)NC(C)=O)C(=O)N[C@@H](C)C(=O)N[C@@H](Cc2ccc(O)cc2)C(=O)N[C@@H](Cc2c[nH]c3ccccc23)C(=O)N[C@@H](CCC(=O)O)C(=O)NC2(CC2)C(=O)N[C@@H](CC(C)C)C(=O)N1)C(N)=O [compound 16] (Ac-F[R8]AYWE[Ac3c]L[S5]AAM-NH2; staple 2-9) | 10 to 100 | 10 to 100 | 10 to 100 | < 10 |  |  |
| CC(=O)N[C@@H](Cc1ccccc1)C(=O)N[C@]1(C)CCCCCCC=CCCC[C@@](C)(C(=O)N[C@@H](C)C(=O)N[C@@H](C)C(=O)N[C@@H](CCC(C)C)C(N)=O)NC(=O)[C@H](CC(C)C)NC(=O)C2(CC2)NC(=O)[C@H](CCC(=O)O)NC(=O)[C@H](Cc2c[nH]c3ccccc23)NC(=O)[C@H](Cc2ccc(O)cc2)NC(=O)[C@H](C)NC1=O [compound 17] (Ac-F[R8]AYWE[Ac3c]L[S5]AA[hLeu]-NH2; staple 2-9) | 10 to 100 | 10 to 100 | 10 to 100 | < 10 |  |  |
